This passage reports mutagenic call results from PubChem BioAssay AID1259407 (Chemical Carcinogenesis Research Information System (CCRIS), 2018).

This data set has as its system CCRIS mutagenicity, Ames/micronucleus/aberration tests. Description: CCRIS mutagenicity studies.
[1] abbreviates: Test System: AMES SALMONELLA TYPHIMURIUM, Strain/Indicator: TA98, Metabolic Activation: NONE, Method: STANDARD PLATE.
Setting [2] is: Test System: AMES SALMONELLA TYPHIMURIUM, Strain/Indicator: TA98, Metabolic Activation: RAT, LIVER, S-9, AROCLOR 1254, Method: STANDARD PLATE.
[3] abbreviates: Test System: AMES SALMONELLA TYPHIMURIUM, Strain/Indicator: TA100, Metabolic Activation: NONE, Method: STANDARD PLATE.
Setting [4] is: Test System: AMES SALMONELLA TYPHIMURIUM, Strain/Indicator: TA100, Metabolic Activation: RAT, LIVER, S-9, AROCLOR 1254, Method: STANDARD PLATE.
[5] abbreviates: Test System: AMES SALMONELLA TYPHIMURIUM, Strain/Indicator: TA1535, Metabolic Activation: NONE, Method: STANDARD PLATE.
[6] abbreviates: Test System: AMES SALMONELLA TYPHIMURIUM, Strain/Indicator: TA1535, Metabolic Activation: RAT, LIVER, S-9, AROCLOR 1254, Method: STANDARD PLATE.
Where [7] appears, read: Test System: AMES SALMONELLA TYPHIMURIUM, Strain/Indicator: TA1537, Metabolic Activation: NONE, Method: STANDARD PLATE.
Setting [8] is: Test System: AMES SALMONELLA TYPHIMURIUM, Strain/Indicator: TA1538, Metabolic Activation: NONE, Method: STANDARD PLATE.
Where [9] appears, read: Test System: AMES SALMONELLA TYPHIMURIUM, Strain/Indicator: TA1538, Metabolic Activation: RAT, LIVER, S-9, AROCLOR 1254, Method: STANDARD PLATE.
Where [10] appears, read: Test System: AMES SALMONELLA TYPHIMURIUM, Strain/Indicator: TA100, Metabolic Activation: NONE, Method: PREINCUBATION

Activity calls are given as the source filed them. How the calls were made is not given here.

For the compound `CCCC(O)C(CC)CO` (stereo not drawn), the mutagenic call was “inactive; negative” (Test System: AMES SALMONELLA TYPHIMURIUM, Strain/Indicator: TA98, Metabolic Activation: HAMSTER, LIVER, S-9, AROCLOR 1254, Method: STANDARD PLATE); “inactive; negative” under setting [1]; “inactive; negative” under setting [2]; “inactive; negative” (Test System: AMES SALMONELLA TYPHIMURIUM, Strain/Indicator: TA100, Metabolic Activation: HAMSTER, LIVER, S-9, AROCLOR 1254, Method: STANDARD PLATE); “inactive; negative” under setting [3]; “inactive; negative” under setting [4]. Moreover, the mutagenic call was “inactive; negative” (Test System: AMES SALMONELLA TYPHIMURIUM, Strain/Indicator: TA1535, Metabolic Activation: HAMSTER, LIVER, S-9, AROCLOR 1254, Method: STANDARD PLATE); “inactive; negative” under setting [5]; “inactive; negative” under setting [6]; “inactive; negative” (Test System: AMES SALMONELLA TYPHIMURIUM, Strain/Indicator: TA1537, Metabolic Activation: HAMSTER, LIVER, S-9, AROCLOR 1254, Method: STANDARD PLATE); “inactive; negative” under setting [7]; “inactive; negative” (Test System: AMES SALMONELLA TYPHIMURIUM, Strain/Indicator: TA1538, Metabolic Activation: HAMSTER, LIVER, S-9, AROCLOR 1254, Method: STANDARD PLATE). For the same compound, the mutagenic call runs as follows: under setting [8], “inactive; negative”; under setting [9], “inactive; negative”; (Test System: MOUSE LYMPHOMA, Strain/Indicator: L5178Y (TK+/TK-), Metabolic Activation: NONE, Method: SUSPENSION/PLATE) “inactive; positive. reevaluation of results: negative”; (Test System: MOUSE LYMPHOMA, Strain/Indicator: L5178Y (TK+/TK-), Metabolic Activation: RAT, LIVER, S-9, AROCLOR 1254, Method: SUSPENSION/PLATE) “inactive; negative. reevaluation of results: negative”.
Take `O=C1NC(=O)C(Cl)C1=C(Cl)Cl` (stereo not drawn): the mutagenic call under setting [3] is “active; positive”.
Regarding `O=CNc1ccc(Oc2c(Cl)cc(Cl)cc2Cl)cc1`, the mutagenic call was “inactive; negative” under setting [3] and “active; positive” (Test System: AMES SALMONELLA TYPHIMURIUM, Strain/Indicator: TA100, Metabolic Activation: RAT, LIVER, S-9, KANECLOR 500, Method: STANDARD PLATE).
Turning to `N=C1CCC(=N)c2c1c(O)c1ccccc1c2O`, the mutagenic call by setting is: under setting [1], “inactive; negative”; under setting [3], “inactive; negative”; under setting [4], “inactive; negative”; under setting [5], “inactive; negative”; under setting [6], “inactive; negative”; under setting [7], “active; positive”. In addition, the mutagenic call (Test System: AMES SALMONELLA TYPHIMURIUM, Strain/Indicator: TA1537, Metabolic Activation: RAT, LIVER, S-9, AROCLOR 1254, Method: STANDARD PLATE) is “active; positive”; the mutagenic call under setting [8] was “inactive; negative”; the mutagenic call under setting [9] is “inactive; negative”.
`Cc1c(C)c2c(nc(N)n2C)c2nccnc12`: under setting [2], the mutagenic call was “active; positive”.
Regarding `CN[C@H]1[C@@H](O[C@@H]2C3CC#CC4O[C@@]4(C4COC(=O)O4)C#CC3=C[C@H]2OC(=O)c2c(O)ccc3c(C)cc(OC)cc23)O[C@H](C)[C@H](O)[C@@H]1O` (stereo partly drawn), the mutagenic call is “inactive; negative” under setting [1]; “inactive; negative” under setting [3]; “active; positive” (Test System: CHINESE HAMSTER OVARY, Strain/Indicator: CHO-D422 (APRT)/8-AZAADENINE, Metabolic Activation: NONE); “active; positive” (Test System: CHINESE HAMSTER OVARY, Strain/Indicator: CHO-K1/6-THIOGUANINE, Metabolic Activation: NONE); “active; positive” (Test System: E. COLI, Strain/Indicator: WP2 (HCR), Metabolic Activation: NONE, Method: STANDARD PLATE); “active; positive” (Test System: E. COLI, Strain/Indicator: WP2, Metabolic Activation: NONE, Method: PREINCUBATION). Also, the mutagenic call by setting is: (Test System: E. COLI, Strain/Indicator: WP2, Metabolic Activation: NONE, Method: SPOT) “active; positive”; (Test System: E. COLI, Strain/Indicator: WP2 UVRA, Metabolic Activation: NONE, Method: PREINCUBATION) “active; positive”; (Test System: E. COLI, Strain/Indicator: WP2 UVRA, Metabolic Activation: NONE, Method: SPOT) “active; positive”; (Test System: UDS HUMAN CELLS, Strain/Indicator: THY INCORP (NON-S-PHASE), Metabolic Activation: NONE, Method: AUTORADIOGRAPHY) “active; positive”; (Test System: UDS HUMAN CELLS, Strain/Indicator: THY INCORP (NON-S-PHASE), Metabolic Activation: NONE, Method: LIQUID SCINTILLATION COUNTING) “active; positive”.
For the compound `O=[N+]([O-])C1CCCC1`, the mutagenic call by setting is: under setting [10], “inactive; negative”; (Test System: AMES SALMONELLA TYPHIMURIUM, Strain/Indicator: TA100, Metabolic Activation: RAT, LIVER, S-9, AROCLOR, Method: PREINCUBATION) “active; positive”; (Test System: AMES SALMONELLA TYPHIMURIUM, Strain/Indicator: TA102, Metabolic Activation: NONE, Method: PREINCUBATION) “inactive; negative”; (Test System: AMES SALMONELLA TYPHIMURIUM, Strain/Indicator: TA102, Metabolic Activation: RAT, LIVER, S-9, AROCLOR, Method: PREINCUBATION) “inactive; negative”; (Test System: UDS RAT HEPATOCYTES, Strain/Indicator: THY INCORP, Metabolic Activation: NONE) “active; positive”.
Regarding `O=C(OCC1CO1)C1CCCCC1C(=O)OCC1CO1` (stereo not drawn), the mutagenic call reads like this: (Test System: AMES SALMONELLA TYPHIMURIUM, Strain/Indicator: TA100, Metabolic Activation: HAMSTER, LIVER, S-9, AROCLOR 1254 (30%), Method: PREINCUBATION) “active; positive”; under setting [10], “active; positive”; (Test System: AMES SALMONELLA TYPHIMURIUM, Strain/Indicator: TA100, Metabolic Activation: RAT, LIVER, S-9, AROCLOR 1254 (30%), Method: PREINCUBATION) “active; positive”; (Test System: AMES SALMONELLA TYPHIMURIUM, Strain/Indicator: TA1535, Metabolic Activation: HAMSTER, LIVER, S-9, AROCLOR 1254 (30%), Method: PREINCUBATION) “active; positive”; (Test System: AMES SALMONELLA TYPHIMURIUM, Strain/Indicator: TA1535, Metabolic Activation: NONE, Method: PREINCUBATION) “active; positive”; (Test System: AMES SALMONELLA TYPHIMURIUM, Strain/Indicator: TA1535, Metabolic Activation: RAT, LIVER, S-9, AROCLOR 1254 (30%), Method: PREINCUBATION) “active; positive”.
For `O=[N+]([O-])c1ccccc1SSC(F)=C(Cl)Cl`, the mutagenic call is, setting by setting: (Test System: AMES SALMONELLA TYPHIMURIUM, Strain/Indicator: TA100(DNP6), Metabolic Activation: NONE, Method: PREINCUBATION) “active; positive”; (Test System: AMES SALMONELLA TYPHIMURIUM, Strain/Indicator: TA100(NR), Metabolic Activation: NONE, Method: PREINCUBATION) “active; positive”.
